Measurements taken from ChEMBL document CHEMBL1201862, “PubChem BioAssay data set” (2004).
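Test compounds were applied to cells in 96-well plates for 48 hours at 5 doses. GI50 is the concentration that inhibits growth by half.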 Calls of active or inactive are those of the source. No stated cut-off is given here; in the data, active = GI50 up to about 1.1 µM and inactive = higher.

How the values were obtained:
Experiment in all cases: NCI tumour cell line growth inhibition, 48 h
MCF7 = tested on: MCF7
UO-31 = tested on: UO-31
SR = tested on: SR
SK-MEL-2 = tested on: SK-MEL-2
A498 = tested on: A498
CAKI-1 = tested on: CAKI-1
SNB-19 = tested on: SNB-19
SK-MEL-5 = tested on: SK-MEL-5
COLO 205 = tested on: COLO 205
ACHN = tested on: ACHN
HCT-15 = tested on: HCT-15
SF-268 = tested on: SF-268
SN12C = tested on: SN12C
SK-MEL-28 = tested on: SK-MEL-28
Malme-3M = tested on: Malme-3M
SW-620 = tested on: SW-620
M14 = tested on: M14
HL-60 = tested on: HL-60
HT-29 = tested on: HT-29

SMILES | GI50 (MCF7) | GI50 (UO-31) | GI50 (SR) | GI50 (SK-MEL-2) | GI50 (A498) | GI50 (CAKI-1) | GI50 (SNB-19) | GI50 (SK-MEL-5) | GI50 (COLO 205) | GI50 (ACHN) | GI50 (HCT-15) | GI50 (SF-268) | GI50 (SN12C) | GI50 (SK-MEL-28) | GI50 (Malme-3M) | GI50 (SW-620) | GI50 (M14) | GI50 (HL-60) | GI50 (HT-29)
Cc1ccc(S(=O)(=O)c2ccsc2NC(=O)c2ccccc2)cc1 | > 26.7 µM (inactive) | > 49.3 µM (inactive) | 4.79 µM (inactive) | > 57 µM (inactive) | 45.9 µM (inactive) | 40.7 µM (inactive) | > 64.3 µM (inactive) | 12.7 µM (inactive) | > 100 µM (inactive) | > 42.6 µM (inactive) | > 100 µM | 31.3 µM (inactive) | > 100 µM (inactive) | > 100 µM (inactive) | > 100 µM (inactive) | > 100 µM (inactive) | > 100 µM (inactive) | – | –
O=C(c1cc2c(c3ccccc13)NCCN=C2C(F)(F)F)C(F)(F)F | 19.2 µM (inactive) | 51.9 µM (inactive) | 3.94 µM (inactive) | 18.7 µM (inactive) | 17.1 µM (inactive) | 32.4 µM (inactive) | – | 16.4 µM (inactive) | – | 22.8 µM (inactive) | 45.3 µM | 24 µM (inactive) | – | 18.9 µM (inactive) | – | 35.2 µM (inactive) | 24.9 µM (inactive) | 16.3 µM (inactive) | 11.6 µM (inactive)
Cc1ccc(NC(=O)COc2ccc(Cl)cc2)cc1Cl | > 100 µM (inactive) | 30.3 µM (inactive) | 10.1 µM (inactive) | > 100 µM (inactive) | 45.3 µM (inactive) | 18.7 µM (inactive) | 74.1 µM (inactive) | > 100 µM (inactive) | > 100 µM (inactive) | 42.7 µM (inactive) | > 100 µM | 53.1 µM (inactive) | 38.2 µM (inactive) | > 100 µM (inactive) | 30.5 µM (inactive) | > 100 µM (inactive) | 47.1 µM (inactive) | – | > 100 µM (inactive)
CCCCCCCCCCCCCCCCCCNc1nc(=O)n(C2CC(OP(=O)(O)OCC3OC(n4cc(F)c(=O)[nH]c4=O)CC3O)C(CO)O2)cc1F (configuration not stated) | 9.86 µM (inactive) | 13.5 µM (inactive) | 4.86 µM (inactive) | 27.5 µM (inactive) | 13 µM (inactive) | 26.2 µM (inactive) | 12.1 µM (inactive) | 34.7 µM (inactive) | 20.7 µM (inactive) | 11.2 µM (inactive) | 37.5 µM | 12.4 µM (inactive) | > 100 µM (inactive) | 27.1 µM (inactive) | – | 18.8 µM (inactive) | 19.5 µM (inactive) | 5.18 µM (inactive) | 16.6 µM (inactive)
CCOc1ccc(/N=N/C2C(=O)N(C(=O)CC(=O)Nc3ccc(Cl)cc3)N=C2C)cc1 (configuration not stated) | > 100 µM (inactive) | > 100 µM (inactive) | > 100 µM (inactive) | > 100 µM (inactive) | > 100 µM (inactive) | > 100 µM (inactive) | – | > 100 µM (inactive) | > 100 µM (inactive) | > 100 µM (inactive) | – | > 100 µM (inactive) | > 100 µM (inactive) | > 100 µM (inactive) | > 100 µM (inactive) | > 100 µM (inactive) | > 100 µM (inactive) | > 100 µM (inactive) | > 100 µM (inactive)
COC1=CC(=O)N(C)C(O)C1(C#N)OC1OC(CO)C(O)C(O)C1O (configuration not stated) | > 100 µM (inactive) | > 100 µM (inactive) | > 100 µM (inactive) | > 100 µM (inactive) | > 100 µM (inactive) | > 100 µM (inactive) | > 100 µM (inactive) | > 100 µM (inactive) | > 100 µM (inactive) | > 100 µM (inactive) | > 100 µM | > 100 µM (inactive) | > 100 µM (inactive) | > 100 µM (inactive) | – | > 100 µM (inactive) | > 100 µM (inactive) | > 100 µM (inactive) | > 10 µM (inactive)
COC(=O)N1N=C(c2ccccc2)C1c1ccccc1 (configuration not stated) | 28.9 µM (inactive) | 13.7 µM (inactive) | 31.9 µM (inactive) | 34.5 µM (inactive) | 24 µM (inactive) | 33.6 µM (inactive) | 29.5 µM (inactive) | – | 27 µM (inactive) | – | 39.5 µM | 62.7 µM (inactive) | 42.4 µM (inactive) | 39.7 µM (inactive) | 40.7 µM (inactive) | 48.6 µM (inactive) | 34.5 µM (inactive) | 27.2 µM (inactive) | 32.1 µM (inactive)
CC(C)(C)c1cc(-c2cc(C(C)(C)C)n(-c3ccccc3)n2)nn1-c1ccccc1 | > 100 µM (inactive) | 30.4 µM (inactive) | > 100 µM (inactive) | > 100 µM (inactive) | > 100 µM (inactive) | > 100 µM (inactive) | – | > 100 µM (inactive) | 48.6 µM (inactive) | 23.2 µM (inactive) | > 100 µM | > 100 µM (inactive) | > 100 µM (inactive) | > 100 µM (inactive) | – | 8.57 µM (inactive) | > 100 µM (inactive) | > 100 µM (inactive) | 68.9 µM (inactive)
